Here are results for one molecule from US20220096508A1, “METHOD OF TREATMENT AND PHARMACEUTICAL DOSAGE FORM” (Aprea Therapeutics AB, priority 2019, published 2022).

The subject of this data set is TP53 mutant myeloid neoplasms. From the text: The study, identified as NCT03072043 on clinicaltrials.gov, is a multi-institution, open-label, phase Ib/II clinical trial conducted in 2 parts: a Phase 1 b part followed by a Simon's two-stage Phase 2 design. The study assesses the safety and efficacy of APR-246 in combination with azacitidine for the treatment of TP53 mutant myeloid neoplasms. All patients were pre-screened by NGS on peripheral blood (PB) or bone marrow (BM) samples to determine TP53 mutational status and therefore eligibility to participate in this study. A PB sample was obtained prior to treatment for NGS by a central laboratory, to evaluate baseline TP53 VAF and for serial analysis.
Treatment was administered on an outpatient basis. No investigational or commercial agents or therapies other than those described were administered with the intent to treat the patient's MDS or MDS/MPN. APR-246 was supplied by Aprea Therapeutics AB. The investigational medicinal product was a concentrate for solution, diluted with sterile 0.9% NaCl solution for infusion before administration. The solution for infusion was prepared with the prescribed dosage for each patient in accordance with the protocol and separate technical instruction.
The initial Phase 1 b part evaluated APR-246 administered with azacitidine. Cohorts of at least 3 evaluable patients were enrolled using a modified 3+3 design. Patients received IV infusions of APR-246 as a lead-in phase on days −14 to −11, starting at Dose Level 1 (see below and in Table 1) prior to starting cycle #1 of combination therapy with azacitidine (see FIG. 1) In all cycles, APR-246 was administered as a 6-hour infusion daily for four consecutive days (study days −14 to −11 of the lead in phase and day 1 to 4 of each combination cycle). • Dose Level 1 (starting dose): APR-246 21.0 mg/kg LBM (for the first 45 min)+29 mg/kg LBM (for 5 h 15 min) on days 1 to 4. • Dose Level 2: APR-246 30.0 mg/kg LBM (for first 45 min)+45.0 mg/kg LBM (for 5 h 15 min) on days 1 to 4. • Dose Level 3: APR-246 37.0 mg/kg LBM (for first 45 min)+63.0 mg/kg LBM (for 5 h 15 min) on days 1 to 4.
Thus, the combination therapy consisted of APR-246 on days 1-4 and azacitidine on days 4-10 of a 28-day cycle. Azacitidine was administered subcutaneously (SC) or intravenously (SC being preferred) at 75 mg/m^2 for 7 days (either for 7 consecutive days (days 4-10) or on 2+5 days (i.e. days 4-5 and 8-12)). Azacitidine was administered on day 4 at the same time as the final infusion of APR-246. Azacitidine was given following the completion of APR-246 infusion. Cohorts of at least 3 evaluable patients were enrolled using a modified 3+3 design. Patients were followed for at least 6 weeks (lead-in phase+cycle 1) before decision to dose escalation in the next cohort following a full safety assessment. The MTD was defined as the dose level below which DLT is manifested in 33% of the patients or at dose level 1 if DLT is manifested in <33% of the patients.
Following completion of the dose finding phase described above, a dose expansion was carried out, whereby patients are treated with APR-246 administered at the MTD with azacitidine on a 28-day cycle with the same dosing schedule as in Phase Ib, with the exception of no lead in phase (i.e. patients will start at day 1 of combination therapy with APR-246 on days 1˜4 and azacitidine on days 4-10 (or days 4-5 and 8-12) of a 28-day cycle as illustrated in FIG. 1), and the exception that the recommended Phase 2 dose was modified from 100 mg/kg LBM to a fixed dose regimen of 4500 mg/patient (i.e. APR-246 administration in 2 consecutive steps as a loading dose (1500 mg for first 45 min) and a maintenance dose (3000 mg for 5 h 15 min)).

[1] abbreviates: MDS population (n=40), combination with azacitidine.
Where [2] appears, read: protocol-defined efficacy evaluable MDS population (n=33), combination with azacitidine.

Read-outs that look alike come from different tables or passages of the source.

`COCC1(CO)C(=O)C2CCN1CC2` (stereo not drawn) [APR-246, 2-hydroxymethyl-2-methoxymethyl-1-azabicyclo [2,2,2] octan-3-one]: the “patients able to discontinue therapy and proceed to allogeneic SCT” value (MDS patients, combination with azacitidine) amounted to 40%; the “patients able to discontinue therapy and proceed to allogeneic SCT” value (efficacy evaluable MDS patients, combination with azacitidine) is on record as 48%. Moreover, under setting [1], the CR rate was 50%. Also, the ORR is, setting by setting: under setting [1], 73%; under setting [2], 88%. In addition, for the setting “human, in vivo”, the “recommended Phase 2 dose” value is listed as 100 mg/kg lean body weight. The “patients who achieved CR, Stage 1” value (of 24 evaluable patients at the MTD, combination with azacitidine) is reported as “More than 6”. Further, the “patients who achieved CR, Stage 2” value (of 45 evaluable patients, combination with azacitidine) is listed as “More than 14”. Further, the CR under setting [2] stood at 61%.
